Data on eleven compounds can be found in patent US10538555B2, “Macrocyclic inhibitors of the PD-1/PD-L1 and CD80(B7-1)/PD-L1 protein/protein interactions” (BRISTOL-MYERS SQUIBB COMPANY, priority 2014, dated 2020).

Where two headings read alike, the source gives them in different places. Where a SMILES comes first, the peptide text is derived from it. Bridges are numbered along the chain shown (N, C = ends). [ ]: non-standard residue; d: D form. Hyp = O=C(O)[C@@H]1C[C@@H](O)CN1; NMeNle = CCCC[C@H](NC)C(=O)O; NMeA = CN[C@@H](C)C(=O)O; Dab = NCC[C@H](N)C(=O)O; Dap = NC[C@H](N)C(=O)O

In the assay the target is T1, Human PD-L1/PD-1 (Homo sapiens, UniProt Q9NZQ7).
T1 construct: TVMV protease cleavage site (C); made in house; host or cells: HEK293T cells
T1 sequence (Q9NZQ7 with tags, fused parts or gaps): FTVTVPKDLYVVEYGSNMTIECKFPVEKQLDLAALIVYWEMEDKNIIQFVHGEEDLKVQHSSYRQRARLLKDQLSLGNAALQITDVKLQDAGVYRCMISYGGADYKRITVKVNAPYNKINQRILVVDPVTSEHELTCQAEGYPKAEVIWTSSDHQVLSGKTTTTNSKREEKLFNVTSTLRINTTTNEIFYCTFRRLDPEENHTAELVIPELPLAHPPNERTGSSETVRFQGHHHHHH
Put plainly: HTRF Human PD-L1/PD-1 binding assay (PD-1-Ig/PD-L1-His). Conditions: PD-L1-His 10 nM, PD-1-Ig 20 nM. The method, boiled down:
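Truncated Fc-fused human PD-1 (aa 25-167) at 20 nM and His-tagged PD-L1 (aa 18-239) at 10 nM final are used, with peptides preincubated 15 min with PD-L1. Detection uses europium-cryptate anti-Ig and APC anti-His antibodies; 665/620 nm ratio.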
Background: In TR-FRET formats the signal depends on donor and acceptor labels being close together.

Where [1] appears, read: class symbol, read-out: HTRF Human PD-L1/PD-1 Binding Assay IC50 Range.

As for `CCCC[C@H]1C(=O)N(C)[C@@H](CCCC)C(=O)N[C@@H](CCC(=O)O)C(=O)N[C@H](C(=O)NCC(N)=O)CSCC(=O)N[C@@H](Cc2ccc(OC)cc2)C(=O)N(C)[C@@H](C)C(=O)N[C@@H](CC(=O)O)C(=O)N2CCC[C@H]2C(=O)N[C@@H](Cc2cnc[nH]2)C(=O)N[C@@H](CCC(=O)O)C(=O)N2C[C@H](O)C[C@H]2C(=O)N[C@@H](Cc2c[nH]c3ccccc23)C(=O)N[C@@H](CCN)C(=O)N[C@@H](Cc2c[nH]c3ccccc23)C(=O)N1C` [Example 7110] ({CH2CO}-Y(Me)[NMeA]DPHE[Hyp]W[Dab]W[NMeNle][NMeNle]ECG-NH2; thioether N-14), under setting [1], the IC50 was in the range of 1 to 9.9 nM. With `CCCC[C@H]1C(=O)N(C)[C@@H](CCCC)C(=O)N[C@@H](CCC(=O)O)C(=O)N[C@H](C(=O)NCC(N)=O)CSCC(=O)N[C@@H](Cc2ccc(OC)cc2)C(=O)N(C)[C@@H](C)C(=O)N[C@@H](CCN)C(=O)N2CCC[C@H]2C(=O)N[C@@H](Cc2cnc[nH]2)C(=O)N[C@@H](CCC(=O)O)C(=O)N2C[C@H](O)C[C@H]2C(=O)N[C@@H](Cc2c[nH]c3ccccc23)C(=O)N[C@@H](CCN)C(=O)N[C@@H](Cc2c[nH]c3ccccc23)C(=O)N1C` [Example 7111] ({CH2CO}-Y(Me)[NMeA][Dab]PHE[Hyp]W[Dab]W[NMeNle][NMeNle]ECG-NH2; thioether N-14), the IC50 under setting [1] was in the range of 1 to 9.9 nM. The same measure, in the same setting: under `CCCC[C@H]1C(=O)N(C)[C@@H](CCCC)C(=O)N[C@@H](CCC(=O)O)C(=O)N[C@H](C(=O)NCC(N)=O)CSCC(=O)N[C@@H](Cc2ccc(OC)cc2)C(=O)N(C)[C@@H](C)C(=O)N[C@@H](CCN)C(=O)N2CCC[C@H]2C(=O)N[C@@H](CN)C(=O)N[C@@H](CCC(=O)O)C(=O)N2C[C@H](O)C[C@H]2C(=O)N[C@@H](Cc2c[nH]c3ccccc23)C(=O)N[C@@H](CCN)C(=O)N[C@@H](Cc2c[nH]c3ccccc23)C(=O)N1C` [Example 7112] ({CH2CO}-Y(Me)[NMeA][Dab]P[Dap]E[Hyp]W[Dab]W[NMeNle][NMeNle]ECG-NH2; thioether N-14) stands 1 to 9.9 nM; under `CCCC[C@H]1C(=O)N(C)[C@@H](CCCC)C(=O)N[C@@H](CCC(=O)O)C(=O)N[C@H](C(=O)NCC(N)=O)CSCC(=O)N[C@@H](Cc2ccc(OC)cc2)C(=O)N(C)[C@@H](C)C(=O)N[C@@H](CC(=O)O)C(=O)N2CCC[C@H]2C(=O)N[C@@H](CN)C(=O)N[C@@H](CCC(=O)O)C(=O)N2C[C@H](O)C[C@H]2C(=O)N[C@@H](Cc2c[nH]c3ccccc23)C(=O)N[C@@H](CCN)C(=O)N[C@@H](Cc2c[nH]c3ccccc23)C(=O)N1C` [Example 7113] ({CH2CO}-Y(Me)[NMeA]DP[Dap]E[Hyp]W[Dab]W[NMeNle][NMeNle]ECG-NH2; thioether N-14), 1 to 9.9 nM; under `CCCC[C@H]1C(=O)N(C)[C@@H](CCCC)C(=O)N[C@@H](CCC(=O)O)C(=O)N[C@H](C(=O)NCC(N)=O)CSCC(=O)N[C@@H](Cc2ccc(OC)cc2)C(=O)N(C)[C@@H](C)C(=O)N[C@@H](CCN)C(=O)N2CCC[C@H]2C(=O)N[C@@H](CN)C(=O)N[C@@H](CCC(=O)O)C(=O)N2C[C@H](O)C[C@H]2C(=O)N[C@@H](Cc2c[nH]c3ccccc23)C(=O)N[C@@H](CC(=O)O)C(=O)N[C@@H](Cc2c[nH]c3ccccc23)C(=O)N1C` [Example 7114] ({CH2CO}-Y(Me)[NMeA][Dab]P[Dap]E[Hyp]WDW[NMeNle][NMeNle]ECG-NH2; thioether N-14), 100 to 990 nM. Same read-out and setting: under `CCCC[C@H]1C(=O)N(C)[C@@H](CCCC)C(=O)N[C@@H](CCC(=O)O)C(=O)N[C@H](C(=O)NCC(N)=O)CSCC(=O)N[C@@H](Cc2ccc(OC)cc2)C(=O)N(C)[C@@H](C)C(=O)N[C@@H](CC(N)=O)C(=O)N2CCC[C@H]2C(=O)N[C@@H](Cc2cnc[nH]2)C(=O)N[C@@H](CCCCN)C(=O)N2C[C@H](O)C[C@H]2C(=O)N[C@@H](Cc2c[nH]c3ccccc23)C(=O)N[C@@H](CC(=O)O)C(=O)N[C@@H](Cc2c[nH]c3ccccc23)C(=O)N1C` [Example 7115] ({CH2CO}-Y(Me)[NMeA]NPHK[Hyp]WDW[NMeNle][NMeNle]ECG-NH2; thioether N-14) stands 100 to 990 nM.

For the compound `CCCC[C@H]1C(=O)N(C)[C@@H](CCCC)C(=O)N[C@@H](CCC(=O)O)C(=O)N[C@H](C(=O)NCC(N)=O)CSCC(=O)N[C@@H](Cc2ccc(OC)cc2)C(=O)N(C)[C@@H](C)C(=O)N[C@@H](CCN)C(=O)N2CCC[C@H]2C(=O)N[C@@H](CN)C(=O)N[C@@H](CCCCN)C(=O)N2C[C@H](O)C[C@H]2C(=O)N[C@@H](Cc2c[nH]c3ccccc23)C(=O)N[C@@H](CC(=O)O)C(=O)N[C@@H](Cc2c[nH]c3ccccc23)C(=O)N1C` [Example 7116] ({CH2CO}-Y(Me)[NMeA][Dab]P[Dap]K[Hyp]WDW[NMeNle][NMeNle]ECG-NH2; thioether N-14), the IC50 (read-out: HTRF Human PD-L1/PD-1 Binding Assay IC50) came out at 1000 nM. Take `CCCC[C@H]1C(=O)N(C)[C@@H](CCCC)C(=O)N[C@@H](CCC(=O)O)C(=O)N[C@H](C(=O)NCC(N)=O)CSCC(=O)N[C@@H](Cc2ccc(OC)cc2)C(=O)N(C)[C@@H](C)C(=O)N[C@@H](CC(N)=O)C(=O)N2CCC[C@H]2C(=O)N[C@@H](CN)C(=O)N[C@@H](CCC(=O)O)C(=O)N2C[C@H](O)C[C@H]2C(=O)N[C@@H](Cc2c[nH]c3ccccc23)C(=O)N[C@@H](CC(=O)O)C(=O)N[C@@H](Cc2c[nH]c3ccccc23)C(=O)N1C` [Example 7117] ({CH2CO}-Y(Me)[NMeA]NP[Dap]E[Hyp]WDW[NMeNle][NMeNle]ECG-NH2; thioether N-14): under setting [1], the IC50 is 10 to 99.9 nM. On the same count and under the same terms, for `CCCC[C@H]1C(=O)N(C)[C@@H](CCCC)C(=O)N[C@@H](CCC(=O)O)C(=O)N[C@H](C(=O)NCC(N)=O)CSCC(=O)N[C@@H](Cc2ccc(OC)cc2)C(=O)N(C)[C@@H](C)C(=O)N[C@@H](CC(N)=O)C(=O)N2CCC[C@H]2C(=O)N[C@@H](Cc2cnc[nH]2)C(=O)N[C@@H](CCCCN)C(=O)N2C[C@H](O)C[C@H]2C(=O)N[C@@H](Cc2c[nH]c3ccccc23)C(=O)N[C@@H](CCN)C(=O)N[C@@H](Cc2c[nH]c3ccccc23)C(=O)N1C` [Example 7118] ({CH2CO}-Y(Me)[NMeA]NPHK[Hyp]W[Dab]W[NMeNle][NMeNle]ECG-NH2; thioether N-14) the value was 1 to 9.9 nM; for `CCCC[C@H]1C(=O)N(C)[C@@H](CCCC)C(=O)N[C@@H](CCC(=O)O)C(=O)N[C@H](C(=O)NCC(N)=O)CSCC(=O)N[C@@H](Cc2ccc(OC)cc2)C(=O)N(C)[C@@H](C)C(=O)N[C@@H](CC(=O)O)C(=O)N2CCC[C@H]2C(=O)N[C@@H](Cc2cnc[nH]2)C(=O)N[C@@H](CCCCN)C(=O)N2C[C@H](O)C[C@H]2C(=O)N[C@@H](Cc2c[nH]c3ccccc23)C(=O)N[C@@H](CCN)C(=O)N[C@@H](Cc2c[nH]c3ccccc23)C(=O)N1C` [Example 7119] ({CH2CO}-Y(Me)[NMeA]DPHK[Hyp]W[Dab]W[NMeNle][NMeNle]ECG-NH2; thioether N-14), 1 to 9.9 nM; for `CCCC[C@H]1C(=O)N(C)[C@@H](CCCC)C(=O)N[C@@H](CCC(=O)O)C(=O)N[C@H](C(=O)NCC(N)=O)CSCC(=O)N[C@@H](Cc2ccc(OC)cc2)C(=O)N(C)[C@@H](C)C(=O)N[C@@H](CCN)C(=O)N2CCC[C@H]2C(=O)N[C@@H](Cc2cnc[nH]2)C(=O)N[C@@H](CCCCN)C(=O)N2C[C@H](O)C[C@H]2C(=O)N[C@@H](Cc2c[nH]c3ccccc23)C(=O)N[C@@H](CCN)C(=O)N[C@@H](Cc2c[nH]c3ccccc23)C(=O)N1C` [Example 7120] ({CH2CO}-Y(Me)[NMeA][Dab]PHK[Hyp]W[Dab]W[NMeNle][NMeNle]ECG-NH2; thioether N-14), 1 to 9.9 nM.
